Reference: ChEMBL document CHEMBL5380807, “Imidazo[1,2-a]Pyridine Derivatives as Novel Dual-Target Inhibitors of ABCB1 and ABCG2 for Reversing Multidrug Resistance” (J Med Chem, 2023)
Calls of active or inactive are those of the source. The calls are words filed in the database; no cut-off is given here.

Assays:
K562 [1] = test: Antitumor activity against human K562 cells xenografted in BALB/c mouse assessed as tumor growth inhibition at 40 mg/kg, iv QD for 14 days in presence of adriamycin; format: functional, organism-based; settings: time 14.0 day
[2] = Cytotoxicity against human HEK293 cells expressing ABCG2 assessed as reduction in cell viability incubated for 72 hrs by SRB assay; format: toxicity, cell-based
K562/A02 [3] = test: Reversal of ABCB1 mediated multidrug resistance in human K562/A02 cells overexpressing ABCB1 assessed as decrease in survival rate at 1.25 to 5 uM preincubated for 1 hrs followed by paclitaxel addition and measured after 72 hrs by MTS assay; format: functional, cell-based; settings: dose 1.25-5 µM, time 73.0 hrs
K562 [4] = test: Reversal of ABCB1 mediated adriamycin resistance in human K562 assessed as decrease in survival rate at 1.25 to 5 uM preincubated for 1 hrs followed by adriamycin addition and measured after 72 hrs by MTS assay; format: functional, cell-based; settings: dose 1.25-5 µM, time 73.0 hrs
HEK293 [5] = test: Reversal of ABCG2 mediated multidrug resistance in human HEK293 overexpressing ABCG2 assessed as decrease in survival rate at 1.25 to 5 uM preincubated for 1 hrs followed by adriamycin addition and measured after 72 hrs by SRB assay; format: functional, cell-based; settings: dose 1.25-5 µM, time 73.0 hrs
[6] = AUC (0 to infinity) in Sprague-Dawley rat at 5 mg/kg, iv by LC-MS/MS analysis; format: ADME, organism-based; parameters: dose 5 mg/kg, route iv; settings: in vivo
HEK293 [7] = test: Reversal of ABCG2 mediated mitoxantrone resistance in human HEK293 assessed as decrease in survival rate at 1.25 to 5 uM preincubated for 1 hrs followed by mitoxantrone addition and measured after 72 hrs by SRB assay; format: functional, cell-based; settings: dose 1.25-5 µM, time 73.0 hrs
HEK293 [8] = test: Reversal of ABCG2 mediated multidrug resistance in human HEK293 overexpressing ABCG2 assessed as decrease in survival rate at 1.25 to 5 uM preincubated for 1 hrs followed by topotecan addition and measured after 72 hrs by SRB assay; format: functional, cell-based; settings: dose 1.25-5 µM, time 73.0 hrs
[9] = Half life in Sprague-Dawley rat at 5 mg/kg, iv by LC-MS/MS analysis; format: ADME, organism-based; settings: in vivo
[10] = Metabolic stability in rat liver microsomes assessed as half life at 80 ug/ml preincubated for 5 mins followed by NADPH addition and measured upto 120 mins by LC-MS/MS analysis; format: ADME, Microsome; settings: dose 80 µg/ml, time < 125 min
K562/A02 [11] = test: Reversal of ABCB1 mediated adriamycin resistance in human K562/A02 overexpressing ABCB1 assessed as decrease in survival rate at 1.25 to 5 uM preincubated for 1 hrs followed by adriamycin addition and measured after 72 hrs by MTS assay; format: functional, cell-based; settings: dose 1.25-5 µM, time 73.0 hrs
[12] = Cytotoxicity against human HEK293 cells assessed as reduction in cell viability incubated for 72 hrs by SRB assay; format: toxicity, cell-based
[13] = Volume of distribution at steady state in Sprague-Dawley rat at 5 mg/kg, iv by LC-MS/MS analysis; format: ADME, organism-based; settings: in vivo, read-out: Vdss
[14] = target: T1, Broad substrate specificity ATP-binding cassette transporter ABCG2 (Homo sapiens, UniProt Q9UNQ0); test: Inhibition of ABCG2 (unknown origin) ATPase activity assessed as decrease in luminescence by firefly luciferase reporter assay
T1 sequence (Q9UNQ0 whole entry): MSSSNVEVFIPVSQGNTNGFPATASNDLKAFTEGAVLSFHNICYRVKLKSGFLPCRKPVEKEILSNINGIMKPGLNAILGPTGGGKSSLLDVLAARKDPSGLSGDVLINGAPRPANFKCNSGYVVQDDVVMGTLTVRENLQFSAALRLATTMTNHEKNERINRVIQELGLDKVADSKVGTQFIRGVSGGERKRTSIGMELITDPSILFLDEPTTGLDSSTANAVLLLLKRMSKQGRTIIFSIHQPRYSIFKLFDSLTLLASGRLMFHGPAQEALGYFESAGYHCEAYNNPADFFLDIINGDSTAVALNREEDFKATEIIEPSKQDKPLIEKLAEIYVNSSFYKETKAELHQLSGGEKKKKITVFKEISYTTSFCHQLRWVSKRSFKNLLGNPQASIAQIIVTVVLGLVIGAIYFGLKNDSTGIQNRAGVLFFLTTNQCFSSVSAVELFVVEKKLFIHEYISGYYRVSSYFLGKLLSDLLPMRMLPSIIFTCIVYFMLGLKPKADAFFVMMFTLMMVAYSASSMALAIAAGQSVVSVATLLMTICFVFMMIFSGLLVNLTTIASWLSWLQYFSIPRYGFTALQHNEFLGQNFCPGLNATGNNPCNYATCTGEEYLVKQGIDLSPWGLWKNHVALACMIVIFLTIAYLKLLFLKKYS

[15] = Clearance in Sprague-Dawley rat at 5 mg/kg, iv by LC-MS/MS analysis; format: ADME, organism-based; settings: in vivo
[16] = Toxicity in BALB/c mouse xenografted with human K562 cells assessed as body weight loss at 20 mg/kg, iv QD for 14 days; format: organism-based; settings: in vivo, 336 h, time 14 day
[17] = Metabolic stability in rat liver microsomes assessed as intrinsic clearance at 80 ug/ml preincubated for 5 mins followed by NADPH addition and measured upto 120 mins by LC-MS/MS analysis; format: ADME, Microsome; settings: dose 80 µg/ml, time < 125 min, read-out: CLH
HEK293 [18] = test: Reversal of ABCG2 mediated multidrug resistance in human HEK293 cells overexpressing ABCG2 assessed as change in ABCG2 protein expression level at 2.5 uM incubated for 48 hrs by Western blot analysis; format: functional, cell-based
[19] = Stability in rat plasma assessed as parent compound remaining at 80 ug/ml and measured after 300 mins by LC-MS/MS analysis; format: ADME, cell-free; settings: 5 h, at 80 µg/mL
K562/A02 [20] = test: Reversal of ABCB1 mediated multidrug resistance in human K562/A02 cells overexpressing ABCB1 assessed as decrease in survival rate at 1.25 to 5 uM preincubated for 1 hrs followed by vincristine addition and measured after 72 hrs by MTS assay; format: functional, cell-based; settings: dose 1.25-5 µM, time 73.0 hrs
K562/A02 [21] = test: Reversal of ABCB1 mediated multidrug resistance in human K562/A02 cells overexpressing ABCB1 assessed as change in ABCB1 protein expression level at 2.5 uM incubated for 72 hrs by Western blot analysis; format: functional, cell-based
[22] = Toxicity in iv dosed BALB/c mouse xenografted with human K562/A02 cells overexpressing ABCB1 assessed as lethality; format: organism-based; settings: in vivo
[23] = Toxicity in BALB/c mouse xenografted with human K562/A02 cells overexpressing ABCB1 assessed as body weight loss at 20 mg/kg, iv QD for 14 days; format: organism-based; settings: in vivo, 336 h, time 14 day
HEK293 [24] = test: Reversal of ABCG2 mediated mitoxantrone resistance in human HEK293 overexpressing ABCG2 assessed as decrease in survival rate at 1.25 to 5 uM preincubated for 1 hrs followed by mitoxantrone addition and measured after 72 hrs by SRB assay; format: functional, cell-based; settings: dose 1.25-5 µM, time 73.0 hrs
[25] = Cytotoxicity against human K562 cells assessed as decrease in cell survival rate incubated for 72 hrs by MTS assay; format: toxicity, cell-based
K562/A02 [26] = test: Reversal of ABCB1 mediated multidrug resistance in human K562/A02 cells overexpressing ABCB1 assessed as change in abcb1 mRNA expression level at 2.5 uM incubated for 72 hrs by real time RT-PCR analysis; format: functional, cell-based
[27] = Toxicity in BALB/c mouse xenografted with human K562 cells assessed as body weight loss at 10 to 40 mg/kg, iv QD for 14 days in presence of adriamycin; format: organism-based; settings: in vivo, 336 h, dose 10-40 mg/kg, time 14 day
K562/A02 [28] = test: Antitumor activity against human K562/A02 cells overexpressing ABCB1 xenografted in BALB/c mouse assessed as tumor growth inhibition at 40 mg/kg, iv QD for 14 days in presence of adriamycin; format: functional, organism-based; settings: time 14.0 day
HEK293 [29] = test: Reversal of ABCG2 mediated multidrug resistance in human HEK293 cells overexpressing ABCG2 assessed as change in abcg2 mRNA expression level at 2.5 uM incubated for 48 hrs by real time RT-PCR analysis; format: functional, cell-based
[30] = AUCt in Sprague-Dawley rat at 5 mg/kg, iv by LC-MS/MS analysis; format: ADME, organism-based; parameters: dose 5 mg/kg, route iv; settings: in vivo
K562/A02 [31] = test: Reversal of ABCB1 mediated multidrug resistance in human K562/A02 cells overexpressing ABCB1 assessed as decrease in survival rate at 1.25 uM preincubated for 1 hrs followed by vincristine addition and measured after 72 hrs by MTS assay; format: functional; settings: time 73 hrs
[32] = Toxicity in BALB/c mouse xenografted with human K562/A02 cells overexpressing ABCB1 assessed as body weight loss at 10 to 40 mg/kg, iv QD for 14 days in presence of adriamycin; format: organism-based; settings: in vivo, 336 h, dose 10-40 mg/kg, time 14 day
[33] = target: ATP-dependent translocase ABCB1 (Homo sapiens, UniProt P08183); test: Inhibition of ABCB1 (unknown origin) ATPase activity assessed as decrease in luminescence by firefly luciferase reporter assay
Chain of ATP-dependent translocase ABCB1 (P08183 whole entry): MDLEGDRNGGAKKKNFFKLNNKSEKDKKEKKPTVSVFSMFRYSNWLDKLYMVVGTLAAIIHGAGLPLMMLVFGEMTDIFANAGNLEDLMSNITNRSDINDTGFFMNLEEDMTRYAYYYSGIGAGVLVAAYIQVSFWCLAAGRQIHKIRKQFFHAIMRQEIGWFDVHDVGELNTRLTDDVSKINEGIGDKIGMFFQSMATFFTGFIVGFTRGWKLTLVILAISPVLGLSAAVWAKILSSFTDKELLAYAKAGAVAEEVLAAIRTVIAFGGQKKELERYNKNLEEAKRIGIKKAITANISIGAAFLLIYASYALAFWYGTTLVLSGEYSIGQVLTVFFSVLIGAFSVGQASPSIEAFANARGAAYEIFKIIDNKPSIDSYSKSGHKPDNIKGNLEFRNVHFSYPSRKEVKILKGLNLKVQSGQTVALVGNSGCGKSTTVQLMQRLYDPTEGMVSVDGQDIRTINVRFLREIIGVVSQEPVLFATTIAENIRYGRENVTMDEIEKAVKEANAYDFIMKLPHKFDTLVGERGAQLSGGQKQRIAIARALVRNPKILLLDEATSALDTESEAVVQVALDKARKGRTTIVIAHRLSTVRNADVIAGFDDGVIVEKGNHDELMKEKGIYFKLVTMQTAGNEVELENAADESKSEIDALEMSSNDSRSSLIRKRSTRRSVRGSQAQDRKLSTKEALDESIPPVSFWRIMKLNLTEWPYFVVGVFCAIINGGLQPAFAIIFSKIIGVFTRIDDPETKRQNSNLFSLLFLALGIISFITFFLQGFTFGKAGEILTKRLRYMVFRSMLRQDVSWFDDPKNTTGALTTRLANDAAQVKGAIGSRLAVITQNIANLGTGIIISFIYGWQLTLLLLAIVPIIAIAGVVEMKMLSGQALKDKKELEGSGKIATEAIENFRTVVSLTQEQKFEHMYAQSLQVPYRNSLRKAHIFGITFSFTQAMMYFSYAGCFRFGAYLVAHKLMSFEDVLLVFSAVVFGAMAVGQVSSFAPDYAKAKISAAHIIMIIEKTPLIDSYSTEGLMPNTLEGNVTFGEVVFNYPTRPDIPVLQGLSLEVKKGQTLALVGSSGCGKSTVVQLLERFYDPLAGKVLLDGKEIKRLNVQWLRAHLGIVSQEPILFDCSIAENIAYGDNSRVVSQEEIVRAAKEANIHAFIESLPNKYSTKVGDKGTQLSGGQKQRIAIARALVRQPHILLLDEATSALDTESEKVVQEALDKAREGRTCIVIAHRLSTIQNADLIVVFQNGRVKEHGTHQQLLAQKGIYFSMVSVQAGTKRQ

K562/A02 [34] = test: Reversal of ABCB1 mediated adriamycin resistance in human K562/A02 overexpressing ABCB1 assessed as decrease in survival rate at 5 uM preincubated for 1 hrs followed by adriamycin addition and measured after 72 hrs by MTS assay; format: functional
[35] = Cytotoxicity against human K562/A02 cells overexpressing ABCB1 assessed as decrease in cell survival rate incubated for 72 hrs by MTS assay; format: toxicity, cell-based

## O=C(CN1CCN(c2ccc(OC(F)(F)F)cc2)CC1)Nc1ccc(-c2nc3ccccn3c2CN2CCN(c3ccccc3)CC2)cc1
K562 [1]
  Activity: inactive
[2]
  IC50 at 72 h: 67.7 µM
K562/A02 [3]
  Activity: Active
K562 [4]
  Activity: inactive
HEK293 [5]
  Activity: Active
[6]
  AUC(0-inf): 676 ng·h/mL
HEK293 [7]
  Activity: inactive
HEK293 [8]
  Activity: Active
[9]
  half-life: 2.25 h
[10]
  half-life at 80 ug/ml: 1.02 h
K562/A02 [11]
  Activity: Active
[12]
  IC50 at 72 h: 53.4 µM
[13]
  Vd: 9.41 L/kg
[14]
  inhibition (INH): Active
[15]
  clearance: 130 mL/min/kg
[16]
  Activity: Non-Toxic
[17]
  microsomal CLint at 80 ug/ml: 2.27 µL/min/mg
HEK293 [18]
  Activity: inactive
[19]
  Stability: Stable
K562/A02 [20]
  Activity: Active
K562/A02 [21]
  Activity: inactive
[22]
  LD50: > 200 mg/kg/day
[23]
  Activity: Non-Toxic
HEK293 [24]
  Activity: Active
[25]
  IC50 at 72 h: > 100 µM
K562/A02 [26]
  Activity: inactive
[27]
  Activity: Non-Toxic
K562/A02 [28]
  Activity: Active
HEK293 [29]
  Activity: inactive
[30]
  AUC(0-t): 651 ng·h/mL
K562/A02 [31]
  Activity: 56%
[32]
  Activity: Non-Toxic
[33]
  inhibition (INH): Active
K562/A02 [34]
  Activity: <30%
[35]
  IC50 at 72 h: > 100 µM
